Data taken from article PMC10058748, “Triterpenoids of Three Apple Cultivars—Biosynthesis, Antioxidative and Anti-Inflammatory Properties, and Fate during Processing” (Molecules, 2023).
Converted amounts (≈) assume the structure as drawn.

Legend:
[1] = target: T1, cyclooxygenase 2 (COX-2) (Homo sapiens, UniProt P35354); experiment: COX-2 inhibition (commercial kit, Cayman Chemicals item 701080); format: biochemical; conditions: expressed per dry mass; 1% DMSO
T1 sequence (P35354 18-604): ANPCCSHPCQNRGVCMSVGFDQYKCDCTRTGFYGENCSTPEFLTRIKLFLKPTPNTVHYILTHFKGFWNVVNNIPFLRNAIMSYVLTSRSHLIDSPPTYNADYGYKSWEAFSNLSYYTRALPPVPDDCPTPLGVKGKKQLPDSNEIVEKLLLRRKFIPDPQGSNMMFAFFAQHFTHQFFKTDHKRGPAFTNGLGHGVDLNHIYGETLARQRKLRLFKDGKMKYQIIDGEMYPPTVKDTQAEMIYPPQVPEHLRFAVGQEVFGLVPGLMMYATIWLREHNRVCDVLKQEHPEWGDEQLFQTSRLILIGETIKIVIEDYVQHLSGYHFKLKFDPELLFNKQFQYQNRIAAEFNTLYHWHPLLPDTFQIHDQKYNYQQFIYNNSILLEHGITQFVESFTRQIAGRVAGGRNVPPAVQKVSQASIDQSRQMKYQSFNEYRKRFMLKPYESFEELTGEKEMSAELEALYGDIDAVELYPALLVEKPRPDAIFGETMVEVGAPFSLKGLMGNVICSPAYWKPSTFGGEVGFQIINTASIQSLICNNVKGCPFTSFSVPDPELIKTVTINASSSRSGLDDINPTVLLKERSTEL

[2] = target: T2, 5-lipoxygenase (5-LOX) (Homo sapiens, UniProt P09917); experiment: 5-LOX inhibition (commercial kit, abcam ab284521); format: biochemical; conditions: expressed per dry mass; 1% DMSO
T2 construct: purchased abcam ab284521
T2 sequence (P09917 1-674): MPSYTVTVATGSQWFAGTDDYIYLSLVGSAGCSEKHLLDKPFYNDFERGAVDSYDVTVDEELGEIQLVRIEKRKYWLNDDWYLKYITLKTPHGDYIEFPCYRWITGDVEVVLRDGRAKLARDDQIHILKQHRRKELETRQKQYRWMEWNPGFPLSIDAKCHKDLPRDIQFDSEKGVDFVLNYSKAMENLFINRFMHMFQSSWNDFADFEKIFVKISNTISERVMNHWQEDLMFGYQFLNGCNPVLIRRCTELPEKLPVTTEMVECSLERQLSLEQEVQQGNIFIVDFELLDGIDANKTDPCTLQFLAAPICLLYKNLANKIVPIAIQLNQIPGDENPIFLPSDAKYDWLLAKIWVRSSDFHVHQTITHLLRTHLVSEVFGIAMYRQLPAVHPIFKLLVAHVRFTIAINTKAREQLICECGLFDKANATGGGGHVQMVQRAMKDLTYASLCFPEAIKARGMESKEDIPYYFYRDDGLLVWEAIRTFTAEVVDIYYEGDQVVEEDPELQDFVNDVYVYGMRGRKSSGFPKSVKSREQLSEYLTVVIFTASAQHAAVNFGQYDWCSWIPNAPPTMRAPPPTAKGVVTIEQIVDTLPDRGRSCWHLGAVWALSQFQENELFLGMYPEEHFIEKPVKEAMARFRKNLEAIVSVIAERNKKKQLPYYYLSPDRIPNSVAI
Protocol: The selected peel extracts as well as the standards of triterpenic compounds were analyzed for their antioxidative and anti-inflammatory properties. Due to their hydrophobic character, the samples were dissolved in dimethyl sulfoxide (DMSO). The content of DMSO in the reaction media in all the tests described below was 1% for all the tested samples as well as the controls.
The anti-inflammatory activity was evaluated using commercial kits for three enzymes of biological activity: cyclooxygenases 1 and 2 (COX-1 and COX-2) and 5-lipoxygenase (5-LOX), according to the instructions of the producers. Inhibition of the cyclooxygenases was measured using kits from Cayman Chemicals (Ann Arbor, MI, USA; items 701070 and 701080, respectively), while 5-LOX inhibition was measured using a kit from abcam (Cambridge, UK; item no. ab284521).

[3] = target: T3, cyclooxygenase 1 (COX-1) (Homo sapiens, UniProt P23219); experiment: COX-1 inhibition (commercial kit, Cayman Chemicals item 701070); format: biochemical; conditions: expressed per dry mass; 1% DMSO
T3 construct: purchased Cayman Chemicals 701070
T3 sequence (P23219 24-599): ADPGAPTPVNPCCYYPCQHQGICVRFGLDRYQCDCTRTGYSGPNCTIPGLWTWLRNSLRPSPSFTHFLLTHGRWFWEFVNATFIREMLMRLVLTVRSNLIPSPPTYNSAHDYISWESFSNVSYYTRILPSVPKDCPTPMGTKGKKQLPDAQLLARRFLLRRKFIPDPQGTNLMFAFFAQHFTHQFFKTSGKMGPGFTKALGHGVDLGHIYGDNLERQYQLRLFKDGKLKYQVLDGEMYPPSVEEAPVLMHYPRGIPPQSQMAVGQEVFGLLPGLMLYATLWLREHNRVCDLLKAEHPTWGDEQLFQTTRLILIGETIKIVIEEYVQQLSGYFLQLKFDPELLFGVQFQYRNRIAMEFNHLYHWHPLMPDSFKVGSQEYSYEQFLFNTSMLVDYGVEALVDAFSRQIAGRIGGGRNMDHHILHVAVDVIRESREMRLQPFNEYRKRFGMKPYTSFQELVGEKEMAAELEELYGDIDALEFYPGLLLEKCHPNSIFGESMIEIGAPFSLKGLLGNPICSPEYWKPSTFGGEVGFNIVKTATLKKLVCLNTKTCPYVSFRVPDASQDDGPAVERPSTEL

[4] = heating; cited from earlier work
[5] = DPPH radical scavenging activity; conditions: expressed per dry mass; 1% DMSO; 30 min at room temperature, 517 nm
Protocol: A method described by Yen and Chen was used to determine the activity against DPPH^• [64]. Briefly, 0.1 mL samples were mixed with 2 mL of DPPH^• solution (1 mM) and incubated at room temperature for 30 min. […] Trolox was chosen as a reference antioxidant.

[6] = ABTS radical cation scavenging activity; conditions: expressed per dry mass; 1% DMSO; 6 min incubation, 734 nm
Protocol: The scavenging activity against ABTS^•+ was measured with a protocol described by Re et al. [63]. […] Then, 25 µL samples were mixed with 2.5 mL of ABTS^•+ solution and incubated for 6 min. […] Trolox was chosen as a reference antioxidant.

| IC50 [1] [µM] | IC50 [2] [µM] | IC50 [3] [µM] | IC50 DPPH^• scavenging [5] [µg/mL] | IC50 ABTS^•+ scavenging [6] [µg/mL] | Compound | temperature above which degradative processes occur [4] |
| --- | --- | --- | --- | --- | --- | --- |
| 1730 | > 14100 | 2960 | – | – | O=C(/C=C/c1ccc(O)c(O)c1)O[C@@H]1C[C@](O)(C(=O)O)C[C@@H](O)[C@H]1O [Chlorogenic Acid, chlorogenic acid] | – |
| – | 1400 | – | 96 ± 5 (≈ 210 µM) | 155 ± 7 (≈ 339 µM) | CC1(C)CC[C@]2(C(=O)O)CC[C@]3(C)C(=CC[C@@H]4[C@@]5(C)CC[C@H](O)C(C)(C)[C@@H]5CC[C@]43C)[C@@H]2C1 [Oleanolic Acid, Oleanolic acid] | above 200 °C |

Second part, the molecule before the results:

| Compound | IC50 [1] [µM] | IC50 [2] [µM] | IC50 [3] [µM] | IC50 DPPH^• scavenging [5] [µg/mL] | IC50 ABTS^•+ scavenging [6] [µg/mL] | temperature above which degradative processes occur [4] |
| --- | --- | --- | --- | --- | --- | --- |
| O=C(CCc1ccc(O)cc1)c1c(O)cc(O)cc1O[C@@H]1O[C@H](CO)[C@@H](O)[C@H](O)[C@H]1O [Phloridzin, phloridzin] | 1480 | > 11500 | 2200 | 23 ± 3 (≈ 52.7 µM) | 34 ± 4 (≈ 77.9 µM) | – |
| C[C@H]1[C@H](C)CC[C@]2(C(=O)O)CC[C@]3(C)C(=CC[C@@H]4[C@@]5(C)CC[C@H](O)C(C)(C)[C@@H]5CC[C@]43C)[C@H]12 [Ursolic Acid, Ursolic acid] | 67.9 | 1570 | 114 | – | – | – |
| CC[C@H](CC[C@@H](C)[C@H]1CC[C@H]2[C@@H]3CC=C4C[C@@H](O)CC[C@]4(C)[C@H]3CC[C@]12C)C(C)C [β-Sitosterol, β-sitosterol] | 921 | 4200 | – | – | – | – |
